Data on two compounds can be found in PMC6689897, “Drugging an undruggable pocket on KRAS” (Proceedings of the National Academy of Sciences of the …, 2019).

The subject of this assay is KRAS. Nature of the assay: Alpha Screen PPI assays, summary over KRAS interactions (SOS1, CRAF, PI3Kα). The class given is biochemical, human. From the text: Using biochemical assays, we investigated whether 1 inhibited 3 of the 4 PPIs important for KRAS cycling (Fig. 5 A, i–iii). Namely, 1) GDP-KRAS interaction with the catalytic site of SOS ([33]), 2) GTP-KRAS interaction with the allosteric site of SOS ([34]), and 3) GTP-KRAS interaction with downstream effectors (CRAF and PI3Kα). We were unable to establish a biochemical assay for the fourth intervention point, namely, 4) GTP-KRAS interaction with its GAPs (Fig. 5 A, iv). As a reference compound for these assays, we used the KRAS^G12C-specific covalent inhibitor ARS-1620 ([35]). Compound 1 inhibited all 3 RAS cycle intervention points (1 to 3) in a dose-dependent manner (Fig. 5 B–E) in the range of 100 to 770 nM (SI Appendix, Table S6).
217 The coordinates and structure factors of the structures have been deposited at the
218 Protein Data Bank with the accession codes PDB Code 6GJ5, 6GJ6, 6GJ7, 6GJ8.
221 Measurements of various protein–protein interactions were performed using the Alpha
222 Screen technology developed by Perkin Elmer. Recombinant RAS proteins (H-, N-, K-
223 RAS variants; all KRAS variants are based on KRAS isoform 4B (uniprot id P01116-2);
224 KRAS (G12D) 1-169, N-terminal 6His-tag, C-terminal avi-tag was from Xtal
225 BioStructures, Inc., KRAS (G12C) 1-169, C-terminal avi-tag, biotinylated, mutations:
226 C51S, C80L, C118S, NRAS(wt) 1-172, C-terminal avi-tag, biotinylated; HRAS(wt) 1-
227 166, C-terminal avi-tag, biotinylated). Biotinylation was performed in vitro with
228 recombinant BirA biotin-protein ligase as recommended by the manufacturer (Avidity
229 LLC, Aurora, Colorado, USA). Interacting proteins such as SOS1 (564-1049, N-terminal
230 GST-tag, TEV cleavage site), cRaf (1-303, N-terminal GST-tag, TEV cleavage site) and
231 PI3KA- RBD (160-317, N-term-HIS_GST-tag) were expressed as glutathione S […]
245 for 60 min in the dark at room temperature. Single oxygen induced fluorescence was
246 measured at an Enspire multimode plate reader (Perkin Elmer) according to the
247 manufacturer’s recommendations. Data were analyzed using the GraphPad Prism data […]

`C=CC(=O)N1CCN(c2ncnc3c(F)c(-c4c(O)cccc4F)c(Cl)cc23)CC1` [ARS-1620, reference compound]: the “activity in all GTP-dependent KRAS assays” value is “inactive”. With `Cn1cnc(Cn2ccc3ccc(CNCc4[nH]c5ccccc5c4[C@H]4NC(=O)c5ccc(O)cc54)cc32)c1` [Compound 1], the IC50 (GDP-KRAS::SOS, GTP-KRAS::SOS, GTP-KRAS::effectors (CRAF, PI3Kα), read-out: inhibition of all 3 RAS cycle intervention points, range) is 100 to 770 nM.
